Where “and” joins values, the source holds several entries; their conditions need not be identical. Identical values can stand only once. Counter-ions that a name gives are not always drawn. Like-named read-outs stand apart in the source and are kept apart here.
Tests used:
[1] = biological target: T1, human 5-HT(2C) (INI) receptor (Homo sapiens, UniProt P28335); assay: Calcium flux assay, stably transfected HEK-293 cells, 5-HT2C; format: cell-based; settings: for 5-HT2C % Max ± SEM: percent of maximal activation by 5-HT; for Emax 2C/2A / Emax 2C/2B: Emax ratio
T1 construct: expressed in transfected cells
T1 sequence (P28335 33-458): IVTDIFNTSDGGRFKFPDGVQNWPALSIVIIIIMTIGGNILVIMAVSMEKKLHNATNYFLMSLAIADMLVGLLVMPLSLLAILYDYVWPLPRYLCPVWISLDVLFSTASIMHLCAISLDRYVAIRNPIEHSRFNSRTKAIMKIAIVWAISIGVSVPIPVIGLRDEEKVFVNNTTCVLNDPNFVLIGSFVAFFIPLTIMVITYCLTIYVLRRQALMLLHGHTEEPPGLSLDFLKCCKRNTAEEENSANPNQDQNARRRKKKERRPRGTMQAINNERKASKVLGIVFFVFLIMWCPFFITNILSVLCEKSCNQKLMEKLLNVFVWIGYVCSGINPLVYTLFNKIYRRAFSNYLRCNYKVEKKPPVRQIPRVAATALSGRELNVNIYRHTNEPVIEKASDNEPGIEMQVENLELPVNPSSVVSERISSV

[2] = biological target: T2, 5-HT(2A) receptor (Homo sapiens, UniProt P28223); assay: cell-based; format: cell-based; parameters: expressed in transfected cells; settings: for 5-HT2A % Max ± SEM: percent of maximal activation by 5-HT, activation at 10 μM for compounds without EC50 value
T2 sequence (P28223 whole entry): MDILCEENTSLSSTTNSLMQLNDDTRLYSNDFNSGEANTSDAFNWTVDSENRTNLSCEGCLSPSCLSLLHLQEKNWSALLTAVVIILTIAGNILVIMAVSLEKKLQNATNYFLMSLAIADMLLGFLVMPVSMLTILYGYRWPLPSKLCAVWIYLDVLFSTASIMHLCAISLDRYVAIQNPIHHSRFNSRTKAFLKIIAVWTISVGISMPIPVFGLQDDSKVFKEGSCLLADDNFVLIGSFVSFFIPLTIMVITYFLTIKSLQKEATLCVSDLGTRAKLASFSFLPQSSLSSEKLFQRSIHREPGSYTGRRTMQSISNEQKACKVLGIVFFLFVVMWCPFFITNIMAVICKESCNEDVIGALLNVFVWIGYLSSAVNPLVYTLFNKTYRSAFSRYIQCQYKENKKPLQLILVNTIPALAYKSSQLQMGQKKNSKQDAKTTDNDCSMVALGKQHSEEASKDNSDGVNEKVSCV

[3] = biological target: T3, 5-HT(2B) receptor (Homo sapiens, UniProt P41595); assay: Calcium flux assay, stably transfected HEK-293 cells, 5-HT2B; format: cell-based; parameters: expressed in transfected cells; settings: for 5-HT2B % Max ± SEM: percent of maximal activation by 5-HT, activation at 10 μM for compounds without EC50 value
T3 sequence (P41595 whole entry): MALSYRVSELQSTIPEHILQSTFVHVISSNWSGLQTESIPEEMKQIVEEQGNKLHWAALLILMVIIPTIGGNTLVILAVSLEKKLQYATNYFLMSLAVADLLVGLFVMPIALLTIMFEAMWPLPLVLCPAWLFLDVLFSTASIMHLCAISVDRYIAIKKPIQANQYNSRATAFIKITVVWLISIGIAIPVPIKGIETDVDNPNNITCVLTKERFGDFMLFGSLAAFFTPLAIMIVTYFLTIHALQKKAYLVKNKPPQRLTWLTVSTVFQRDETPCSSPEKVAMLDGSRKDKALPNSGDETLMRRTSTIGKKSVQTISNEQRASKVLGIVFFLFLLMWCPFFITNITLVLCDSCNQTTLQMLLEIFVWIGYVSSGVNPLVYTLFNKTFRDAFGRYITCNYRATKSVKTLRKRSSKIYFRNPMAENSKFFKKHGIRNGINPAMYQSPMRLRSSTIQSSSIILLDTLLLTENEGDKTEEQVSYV

[4] = biological target: T3, 5-HT(2B) receptor; assay: 5-HT(2B) antagonism, shift of 5-HT concentration curve in calcium flux experiments, Schild analysis
[5] = biological target: CYP2C9 (Homo sapiens, UniProt P11712); assay: Recombinant CYP inhibition, CYP2C9; format: in vitro ADME; settings: recombinant CYP2C9, probe tolbutamide, substrate tolbutamide, recombinant enzyme, read-out: % Inhibition at 10 μM, CYP 2C9
Chain of CYP2C9 (P11712 whole entry): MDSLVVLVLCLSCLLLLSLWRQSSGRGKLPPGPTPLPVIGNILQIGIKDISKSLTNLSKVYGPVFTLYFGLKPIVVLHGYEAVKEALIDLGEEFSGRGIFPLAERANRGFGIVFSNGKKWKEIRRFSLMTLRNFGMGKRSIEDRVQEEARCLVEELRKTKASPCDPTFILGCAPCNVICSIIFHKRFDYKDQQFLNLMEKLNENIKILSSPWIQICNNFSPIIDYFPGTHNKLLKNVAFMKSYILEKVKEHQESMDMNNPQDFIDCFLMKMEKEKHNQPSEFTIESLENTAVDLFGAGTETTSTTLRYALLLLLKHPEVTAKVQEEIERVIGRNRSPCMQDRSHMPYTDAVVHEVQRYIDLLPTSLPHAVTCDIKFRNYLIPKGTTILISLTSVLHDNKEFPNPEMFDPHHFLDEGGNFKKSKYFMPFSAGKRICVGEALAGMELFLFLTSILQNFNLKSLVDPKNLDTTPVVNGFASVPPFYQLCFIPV

[6] = biological target: CYP2D6 (Homo sapiens, UniProt P10635); assay: Recombinant CYP inhibition, CYP2D6; format: in vitro ADME; settings: recombinant CYP2D6, probe dextromethorphan, substrate dextromethorphan, recombinant enzyme, read-out: % Inhibition at 10 μM, CYP 2D6
Chain of CYP2D6 (P10635 whole entry): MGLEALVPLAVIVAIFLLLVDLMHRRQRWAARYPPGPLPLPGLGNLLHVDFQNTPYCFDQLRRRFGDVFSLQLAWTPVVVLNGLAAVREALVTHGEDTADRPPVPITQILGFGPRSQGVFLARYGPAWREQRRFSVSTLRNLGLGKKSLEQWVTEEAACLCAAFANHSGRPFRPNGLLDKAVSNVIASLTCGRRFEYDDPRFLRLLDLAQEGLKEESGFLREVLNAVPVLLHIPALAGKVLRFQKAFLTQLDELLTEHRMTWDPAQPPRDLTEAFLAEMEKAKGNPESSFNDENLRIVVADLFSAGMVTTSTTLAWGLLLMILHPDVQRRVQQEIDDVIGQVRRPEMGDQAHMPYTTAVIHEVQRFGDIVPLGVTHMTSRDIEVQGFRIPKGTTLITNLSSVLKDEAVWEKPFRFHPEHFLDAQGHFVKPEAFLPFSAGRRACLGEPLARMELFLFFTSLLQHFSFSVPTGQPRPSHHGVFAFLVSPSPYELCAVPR

[7] = biological target: CYP3A4 (Homo sapiens, UniProt P08684); assay: Recombinant CYP inhibition, CYP3A4; format: in vitro ADME; settings: recombinant enzyme, read-out: % Inhibition at 10 μM, CYP 3A4
Chain of CYP3A4 (P08684 whole entry): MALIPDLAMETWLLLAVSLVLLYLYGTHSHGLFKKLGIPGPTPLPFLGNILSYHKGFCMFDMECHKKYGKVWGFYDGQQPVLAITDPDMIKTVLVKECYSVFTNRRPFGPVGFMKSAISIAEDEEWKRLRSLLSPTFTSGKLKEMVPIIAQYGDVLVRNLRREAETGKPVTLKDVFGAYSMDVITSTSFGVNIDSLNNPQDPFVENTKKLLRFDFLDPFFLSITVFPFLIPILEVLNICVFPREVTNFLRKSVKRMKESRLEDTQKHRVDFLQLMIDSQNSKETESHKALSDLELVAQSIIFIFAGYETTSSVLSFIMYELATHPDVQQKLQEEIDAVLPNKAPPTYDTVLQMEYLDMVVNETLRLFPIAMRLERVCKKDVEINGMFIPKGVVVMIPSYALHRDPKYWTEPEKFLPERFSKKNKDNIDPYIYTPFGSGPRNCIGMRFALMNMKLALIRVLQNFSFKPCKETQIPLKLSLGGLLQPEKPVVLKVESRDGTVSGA

[8] = Stability in liver microsomes, human; format: in vitro ADME; settings: NADPH, 37° C.
[9] = Stability in liver microsomes, rat; format: in vitro ADME; settings: NADPH, 37° C.
Protocol: Stability in Liver Microsomes. For each sample to be investigated, the following was mixed: microsomes (50 μL, 0.5 mg/mL), MgCl2 solution (50 μL, 50 mM), phosphate buffer (250 μL, 100 mM), water (95 μL), test compound (+)-12 (5 μL, 200 μM). Verapamil was tested as a positive control. The reaction was performed at 37° C. and initiated by the addition of NADPH (50 μL, 10 mM) or, for the negative control, by the addition of water (50 μL). Aliquots of 50 μL were taken form the solution after 0, 15, 30, 45, and 60 minutes and the reaction stopped by the addition of 150 μL cold methanol to the aliquot. The samples were centrifuged (16000 rpm, 10 min). 100 μL supernatant was used for LC-MS-MS investigation. All incubations were performed in duplicate. Separation of the sample components was performed on a Waters ACQUITY UPLC C18 (2.1 mm×50 mm) column, using mobile phase mixtures between 0.1% formic acid in MeCN and 0.1% formic acid in water (elution rate 0.5 mL/min, column temperature 25° C.). […] The in vitro intrinsic clearance (in vitro CLint) was calculated according to: in vitro CLint=(0.693/t1/2)×(volume of incubation (μL)/amount of proteins (mg)).

[10] = test system: PCP-disrupted PPI in mice; assay: Prepulse inhibition (PPI) animal study, PCP-disrupted PPI; settings: PCP 6 mg/kg i.p.
[11] = 10-60 mg/kg, behavioral assay, reference (15); cited from earlier work
[12] = biological target: T2, 5-HT(2A) receptor; assay: Modulation of 5-HT(2) family receptors, Table 1, 2A Receptor; format: cell-based; settings: for 2A Receptor ED50: NA = No activity
[13] = biological target: T3, 5-HT(2B) receptor; assay: Modulation of 5-HT(2) family receptors, Table 1, 2B Receptor; format: cell-based; settings: for 2B Receptor ED50: NA = No activity
[14] = biological target: T4, 5-HT(2C) receptor (Homo sapiens, UniProt P28335); assay: Modulation of 5-HT(2) family receptors, Table 1, 2C Receptor; format: cell-based
T4 sequence (P28335 33-458): T1 sequence (P28335 33-458)

[15] = 5-HT2C EC50 ± SEM, Table 2, second section
[16] = Table 2, second section, read-out: 5-HT2C EC50 ± SEM
[17] = Table 2, second section, EC50 ratio

## Cl.NC[C@@H]1C[C@H]1c1cc(F)ccc1OCC1CC1 (racemic) [Compound 12, trans-[2-(2-Cyclopropylmethyloxy-5-fluorophenyl)cyclopropyl]methylamine Hydrochloride]
[1]; EC50 at the 5-HT(2C) receptor, running text b178, functional assays
  EC50: 254 nM
[1]; Table 2, first section, EC50 ratio
  Selectivity 2A/2C: 77
[1]; Table 2, first section
  5-HT2C % Max ± SEM: 68% ±
[1]; Table 2, first section, read-out: 5-HT2C EC50 ± SEM
  EC50: 9.9 nM
[2]; Table 2, first section
  5-HT2A % Max ± SEM: 11% ±
[2]; read-out: 5-HT2A EC50 ± SEM
  EC50: 761 nM
[3]; Table 2, first section
  5-HT2B % Max ± SEM: 2% ±

## Cl.NC[C@@H]1C[C@H]1c1cc(O)ccc1OCC1CC1 (racemic) [Compound 18, trans-[2-(2-Cyclopropylmethyloxy-5-hydroxyphenyl)cyclopropyl]methylamine Hydrochloride]
[1]; 5-HT2C EC50 ± SEM, Table 2, first section
  EC50: 19 nM
[1]; Table 2, first section
  5-HT2C % Max ± SEM: 68% ±
[2]; Table 2, first section
  5-HT2A % Max ± SEM: 7% ±
[3]; Table 2, first section
  5-HT2B % Max ± SEM: 6% ±

## NC[C@@H]1C[C@H]1c1cc(F)ccc1OCC1CC1 (relative stereo) [Compound 12, trans-[2-(2-Cyclopropylmethyloxy-5-fluorophenyl)cyclopropyl]methylamine Hydrochloride]
[1]; Table 2, first section
  Emax 2C/2A: 6.2
  Emax 2C/2B: 38
[2]; functional assays
  activation of the 5-HT(2A) receptor (in words): not to activate
[3]; functional assays
  activation of the 5-HT(2B) receptor (in words): not to activate

## NC[C@@H]1C[C@H]1c1cc(O)ccc1OCC1CC1 (relative stereo) [Compound 18, trans-[2-(2-Cyclopropylmethyloxy-5-hydroxyphenyl)cyclopropyl]methylamine Hydrochloride]
[1]; Table 2, first section
  Emax 2C/2A: 9.4
  Emax 2C/2B: 12

## NCC1CC1c1cc(O)ccc1OCC1CC1 (single isomer, unassigned; (-)) [(−)-18]
[1]; [15]
  EC50: 361 nM
[1]; Table 2, second section
  Emax 2C/2A: 19
  Emax 2C/2B: >>
  5-HT2C % Max ± SEM: 51% ±
[2]; Table 2, second section
  5-HT2A % Max ± SEM: 3% ±
[3]; Table 2, second section
  5-HT2B % Max ± SEM: 0% ±

## C[C@H]1CNCCc2ccc(Cl)cc21 [2 (Lorcaserin), Lorcaserin, reference compound]
[1]
  agonist potency at the 5-HT(2C) receptor (in words): low nM potency
[1]; Table 2, first section
  5-HT2C % Max ± SEM: 99% ±
[1]; Table 2, second section
  5-HT2C % Max ± SEM: 94% ±
[2]; Table 2, first section
  5-HT2A % Max ± SEM: 24% ±
[2]; Table 2, second section
  5-HT2A % Max ± SEM: 31% ±
[3]; Table 2, first section
  5-HT2B % Max ± SEM: 93% ±
[3]; Table 2, second section
  5-HT2B % Max ± SEM: 86% ±

## NCC1CC1c1cc(F)ccc1OCC1CC1 [(+)-12, (+)-trans-(S,S)-[2-(2-Cyclopropylmethyloxy-5-fluorophenyl)cyclopropyl]methylamine Hydrochloride]
[1]; [16]
  EC50: 21 nM
[2]; Table 2, second section (second screening campaign), NA: Emax ≦ 12%, read-out: 5-HT2A EC50 ± SEM
  EC50: 894 nM
[3]; Table 2, second section, NA: Emax ≦ 12%, read-out: 5-HT2B EC50 ± SEM
  EC50: 289 nM
[4]
  Kb: 3160 nM

## NC[C@H]1C[C@@H]1c1cc(F)ccc1OCC1CC1 [(+)-12, (+)-trans-(S,S)-[2-(2-Cyclopropylmethyloxy-5-fluorophenyl)cyclopropyl]methylamine Hydrochloride]
[1]; [17]
  Selectivity 2A/2C: 42
  Selectivity 2B/2C: 14
[1]; Table 2, second section
  Emax 2C/2A: 2.5
  Emax 2C/2B: 3.4
  5-HT2C % Max ± SEM: 71% ±
[5]
  inhibition at 20 min, 10 µM: 19.6%
[6]
  inhibition at 20 min, 10 µM: 27%
[7]; recombinant CYP3A4, probe midazolam, substrate midazolam
  inhibition at 5 min, 10 µM: 21.7%
[7]; recombinant CYP3A4, probe testosterone, substrate testosterone
  inhibition at 5 min, 10 µM: 25.1%
[8]
  Microsomal stability (% remaining), human: 90.50%
[9]
  Microsomal stability (% remaining), rat: 66.03%
[2]; Table 2, second section
  5-HT2A % Max ± SEM: 29% ±
[3]; Table 2, second section
  5-HT2B % Max ± SEM: 21% ±
[10]; 5 mg/kg dose level
  normalization of PCP-disrupted PPI: still effective
[10]; 10 mg/kg
  normalization of PCP-disrupted PPI: able to normalize PCP-disrupted PPI

## NC[C@H]1C[C@@H]1c1cc(O)ccc1OCC1CC1 [(+)-18, (+)-trans-(S,S)-[2-(2-Cyclopropylmethyloxy-5-hydroxyphenyl)cyclopropyl]methylamine Hydrochloride]
[1]; [15]
  EC50: 9.3 nM
[1]; [17]
  Selectivity 2A/2C: 40
[1]; Table 2, second section
  Emax 2C/2A: 3.9
  Emax 2C/2B: 11
  5-HT2C % Max ± SEM: 70% ±
[2]; 5-HT2A EC50 ± SEM, Table 2, second section (second screening campaign), NA: Emax ≦ 12%
  EC50: 372 nM
[2]; Table 2, second section
  5-HT2A % Max ± SEM: 18% ±
[3]; Table 2, second section
  5-HT2B % Max ± SEM: 6% ±
[10]; 10 mg/kg
  normalization of PCP-disrupted PPI: able to normalize PCP-disrupted PPI
[4]; 5-HT(2B) antagonism against 5-HT, calcium flux, n=3
  pA2 (±SEM), Schild analysis: 5.79±0.07

## Cc1cccc(C2CC2CN)c1 (stereo not shown) [Compound 1]
[11]
  antidepressant-like effects: moderate antidepressant-like effects

## NCCc1c[nH]c2ccc(O)cc12 [Compound 5-HT, 5-Hydroxytryptamine, reference compound]
[2]; Table 2, first section
  5-HT2A % Max ± SEM: 100%
[2]; Table 2, second section
  5-HT2A % Max ± SEM: 100% ±

## Cl.NCC1CC1c1ccccc1CCC1CC1 (stereo not shown) [Compound 50]
[12]
  2A Receptor ED50: no activity
[13]
  2B Receptor ED50: no activity
[14]
  2C Receptor Emax: 35 and 60

## Cl.NCC1CC1c1cc(Br)ccc1CCC1CC1 (stereo not shown) [Compound 51]
[12]
  2A Receptor ED50: no activity
[13]
  2B Receptor ED50: no activity
[14]
  2C Receptor Emax: 92

## Cc1ccc(CCC2CC2)c(C2CC2CN)c1.Cl (stereo not shown) [Compound 52]
[12]
  2A Receptor Emax: 47
[13]
  2B Receptor Emax: 35
[14]
  2C Receptor Emax: 98

## CC(C)c1ccc(CCC2CC2)c(C2CC2CN)c1.Cl (stereo not shown) [Compound 53]
[12]
  2A Receptor Emax: 92
[13]
  2B Receptor Emax: 66
[14]
  2C Receptor Emax: 93

## Nc1ccc(S(=O)(=O)Nc2ccnn2-c2ccccc2)cc1 [sulfaphenazole, reference compound]
[5]
  inhibition at 20 min, 10 µM: 94.7%

## trans-[2-(2-cyclopropylmethyloxy-5-fluorophenyl)cyclopropyl]-methylamine hydrochloride [(−)-12]
[1]; Table 2, second section
  Emax 2C/2A: >>
  Emax 2C/2B: 8.0
  5-HT2C % Max ± SEM: 35% ±
[1]; [16]
  EC50: 918 nM
[1]; read-out: EC50 in the 5-HT(2C) assay, running text b178
  EC50: ~2400 nM
[2]; Table 2, second section
  5-HT2A % Max ± SEM: 0% ±
[3]; Table 2, second section
  5-HT2B % Max ± SEM: 4% ±
